# Measurements published in publication PMC5746060, “General and Modular Strategy for Designing Potent, Selective, and Pharmacologically Compliant Inhibitors of Rhomboid Proteases” (Cell Chemical Biology, 2017).
# Starred links: 1 amine or outer side, 2 acyl side, 3 side chain; linkers in the order of their positions; H or OH if unused. Non-standard residues stand in square brackets, D forms with d. Residues, ends and D or L forms follow the SMILES beside them. *: point of attachment. NH(4-phenylbutyl) = c1ccc(CCCCN*)cc1; X1 = C[C@H](N[*:1])C(=O)C(=O)[*:2]; NHPhenethyl = c1ccc(CCN*)cc1
# What was measured:
# [1] = molecular target: T1, Escherichia coli rhomboid GlpG (Escherichia coli, UniProt P09391); test: in vitro GlpG inhibition assay with fluorogenic transmembrane peptide substrate (apparent IC50); type: biochemical
# T1 construct: made in house; host or cells: E. coli C41(DE3)
# Description: To gain insight into these preferences and their possible interactions, we have generated tetra- and pentapeptidyl chloromethylketones (CMK or cmk henceforth) harboring amino acids preferred in positions P5 to P1 by the Escherichia coli rhomboid GlpG (GlpG henceforth), using the sequence background of the Providencia TatA ([Stevenson et al., 2007]), represented by the parent compound Ac-IATA-cmk. We measured the inhibitory properties of this series of compounds using a newly developed in vitro assay employing a fluorogenic transmembrane peptide substrate ([Ticha et al., 2017]) that faithfully represents a native rhomboid substrate.
# Figure 1 The Potency of Substrate-Derived Inhibitors Can be Improved by Modifying the Amino acid Sequence of the P5 to P1 Region (A) The parent inhibitor Ac-IATA-cmk was modified by introducing strongly preferred amino acids ([Zoll et al., 2014]) into the P4, P3, P2, and P5 positions to yield the listed compounds. Their apparent IC50 values were measured with 1 hr preincubation using 10 μM fluorogenic substrate KSp35 and 0.05% (w/v) DDM. The reported values are best-fit means with SD representative of 2–3 measurements. (B) The sequence-optimized peptidyl chloromethylketones were soaked into the native crystals of GlpG and structures of the complexes were solved by X-ray diffraction (for statistics, see Table S1). […] Note that in the Ac-RVRHA-cmk structure (right), the side chain of the Arg residue in the P5 position of the inhibitor has not been modeled due to poor or missing electron density peaks. (C) Interactions of RVRHA-cmk with GlpG were analyzed by Ligplot+ ([Laskowski and Swindells, 2011]). Ligands are shown as thick sticks with carbons in green, proteins as thin sticks with carbons in gray, hydrogen bonds as yellow dashed lines, and amino acids involved in van der Waals contacts are highlighted as transparent surfaces. The inhibitor forms covalent bonds with S201 and H254 via the chloromethylketone warhead, and it hydrogen bonds with the backbone of residues 196–198 from the L3 loop and residues 248–250 from the L5 loop. van der Waals contacts with the inhibitor are formed by the residues from the L3 loop of GlpG, by S193 and Q189 from TMD3, and by F146 and M120 from the L1 loop that pack against the Val side chain of the P4 position of the inhibitor, as observed previously ([Zoll et al., 2014]). (D) The conformations of peptide inhibitors bound to the active site of GlpG were compared by performing structural alignment of the complexes of VRHAcmk (PDB: 5MT7), RVRHAcmk (PDB: 5MT8), IATAcmk (PDB: 4QO2), and VRMAcho (PDB: 5F5B) in PyMOL ([Schrodinger, 2012]). […] The backbone of the ligands in all complexes has virtually identical conformation with the exception of the distortion of the oxyanion by the chloromethylketone, and the biggest differences are found in the conformation of the P2 side chain, which is not surprising, because almost any side chain can be accommodated in this position ([Zoll et al., 2014]). TEXT PRINTED IN THE PICTURE: (A) AcIATAcmk: IC50 (μM): 213 | (A) AcVATAcmk: IC50 (μM): 450 | (A) AcIAHAcmk: IC50 (μM): 200 | (A) AcIRTAcmk: IC50 (μM): 84 | (A) AcVRHAcmk: IC50 (μM): 27 | (A) AcRVRHAcmk: IC50 (μM): 8
# Figure 2 A Screen of Electrophilic Warheads for the Inhibition of Rhomboid Proteases The optimized parent sequence Ac-RVRHA was linked to electrophilic warheads commonly used for targeting serine proteases (reviewed in [Hedstrom, 2002], [Walker and Lynas, 2001]). The apparent IC50 values of the compounds were measured in 0.05% DDM using 10 μM substrate KSp35 ([Ticha et al., 2017]) with 1 hr preincubation. Given are the mean values of 2–3 measurements. […]
# EcGlpG = molecular target: T2, EcGlpG (Escherichia coli, UniProt P09391); test: activity-based probe competition assay, rhomboid panel; type: biochemical, E. coli; settings: 50 μM and 0.5 μM; outcompeted the ABP even at 500 nM
# T2 construct: made in house; host or cells: E. coli C41(DE3)
# Description: Any enzyme inhibitors to be used as specific tools for cell biology or as starting points for drug development must show sufficient level of selectivity toward their intended target. This is particularly important for compounds that react with the catalytic nucleophile common to many serine hydrolases. […] To map the selectivity of peptidyl ketoamides more objectively and widely, we employed activity-based probe (ABP) competition assays that enable a more general and substrate-independent measurement of inhibitory potency, because they rely solely on the competition between a fluorescently labeled activity-based probe and the tested inhibitor ([Nguyen et al., 2015], [Serim et al., 2012]). […]
# Figure 5 Selectivity of Peptidyl Ketoamides (A) Selectivity of compounds 9, 10, and 11 for nine rhomboid proteases was profiled using activity-based probe competition assay at 50 μM and 0.5 μM concentration. […] (B) Selectivity of compounds 9, 10, and 11 against human serine hydrolases was analyzed using EnPlex as described ([Bachovchin et al., 2014]).
# For inhibitor selectivity profiling against rhomboid proteases ([Wolf et al., 2015]), 400 ng of a purified protein preparation of E. coli GlpG was diluted in 30 μL of reaction buffer (20 mM HEPES, pH 7.4, with 0.05% (w/v) DDM). […] Gels were scanned on a Typhoon Trio+ and analyzed using ImageJ. […]
# [2] = molecular target: dipeptidylpeptidase 7 (DPP7) (Homo sapiens, UniProt Q9UHL4); test: EnPlex multiplex ABP competition profiling; type: biochemical; settings: off-target hit; concentration range where they inhibit rhomboid proteases
# Protocol: (§1) Figure 5 Selectivity of Peptidyl Ketoamides (A) Selectivity of compounds 9, 10, and 11 for nine rhomboid proteases was profiled using activity-based probe competition assay at 50 μM and 0.5 μM concentration. The upper limit of enzyme concentration was 0.4 μM. (B) Selectivity of compounds 9, 10, and 11 against human serine hydrolases was analyzed using EnPlex as described ([Bachovchin et al., 2014]).
# (§2) We next examined peptidyl ketoamides for their possible off-target effects on other serine proteases. To get a representative picture of the selectivity of peptidyl ketoamides, we employed a recently developed EnPlex technology, which allows multiplex analysis of ABP competition with about 100 human serine hydrolases, mostly proteases ([Bachovchin et al., 2014]).
# (§3) For inhibitor selectivity profiling against rhomboid proteases ([Wolf et al., 2015]), 400 ng of a purified protein preparation of E. coli GlpG was diluted in 30 μL of reaction buffer (20 mM HEPES, pH 7.4, with 0.05% (w/v) DDM). For other rhomboids, amounts were taken that gave similar labeling intensity during profiling. Rhomboids were incubated for 30 min at room temperature with the indicated concentration of compound, 100 μM DCI as positive control, or an equal volume of DMSO as negative control. Next, TAMRA-FP serine hydrolase probe (Thermo Fisher #88318) was added to a final concentration of 1 ìM and incubated for 2 h at 37°C in the dark. The reaction was stopped by addition of 4× Laemmli buffer and the reaction mixture was resolved on 15% SDS-PAGE. Gels were scanned on a Typhoon Trio+ and analyzed using ImageJ. The intensity of each rhomboid protease band calculated by ImageJ was normalized against its corresponding DMSO-treated counterpart (100% activity) to indicate the residual activity left after inhibition. The remaining activity was used to calculate the percentage of inhibition depicted in the heatmap. Selectivity profiles against human serine hydrolases were determined by EnPlex as described previously ([Bachovchin et al., 2014]).
# [3] = tested on: about 100 human serine hydrolases; test: EnPlex multiplex ABP competition profiling; type: biochemical; settings: concentration range where the ketoamides inhibit rhomboid proteases
# Protocol: as §1, §2, §3
# T1 sequence (P09391 whole entry): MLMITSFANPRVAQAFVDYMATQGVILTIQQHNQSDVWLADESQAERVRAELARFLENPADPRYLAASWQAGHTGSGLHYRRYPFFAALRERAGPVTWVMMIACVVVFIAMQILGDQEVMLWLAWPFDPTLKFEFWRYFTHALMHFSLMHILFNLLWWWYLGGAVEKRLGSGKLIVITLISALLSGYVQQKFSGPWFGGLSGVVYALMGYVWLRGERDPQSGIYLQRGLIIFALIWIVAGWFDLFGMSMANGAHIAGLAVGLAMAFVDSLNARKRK
# T2 sequence (P09391 whole entry): as above
Structure (SMILES),"IC50 ([1]; 1 hr preincubation, 10 μM fluorogenic substrate KSp35, 0.05% (w/v) DDM)",competition with ABP labeling of EcGlpG (EcGlpG),inhibition of DPP7 (EnPlex) [2],inhibition of human serine hydrolases (EnPlex selectivity profile) [3],fold lower IC50 than the parent compound 1 ([1]; ratio of apparent IC50 values)
"CC(=O)N[C@@H](CCCNC(=N)N)C(=O)N[C@H](C(=O)N[C@@H](CCCNC(=N)N)C(=O)N[C@@H](Cc1c[nH]cn1)C(=O)N[C@@H](C)C(=O)C(=O)NCCc1ccccc1)C(C)C [compound 9, Ac-RVRHA-CONH-phenylethyl] (Ac-RVRH[X1]-NHPhenethyl)",440 nM,potently competed,the sequence related dipeptidylpeptidase 7 (DPP7),fail to inhibit most of the tested human serine hydrolases,
"CC(=O)N[C@@H](CCCNC(=N)N)C(=O)N[C@H](C(=O)N[C@@H](CCCNC(=N)N)C(=O)N[C@@H](Cc1c[nH]cn1)C(=O)N[C@@H](C)C(=O)C(=O)NCCCCc1ccccc1)C(C)C [compound 11, Ac-RVRHA-CONH-phenylbutyl] (Ac-RVRH[X1]-{NH(4-phenylbutyl)})",,potently competed,the sequence related dipeptidylpeptidase 7 (DPP7),fail to inhibit most of the tested human serine hydrolases,"about 1,000 fold"
